Where two headings read alike, the source gives them in different places.
Experiments:
myocyte apoptosis = test: TUNEL staining of myocardial slices; set-up: species or system rat; conditions: 3 μM; vehicle 51.1±3.8%; n=5, P<0.01 vs. vehicle
Protocol: To observe the histological changes of the ischemia-reperfusion hearts, the left ventricle was sectioned into 2-3 mm slices and drop-fixed in 10% formalin solution. After adequate fixation (a minimum 48 hours in room temperature), tissue slices were transferred into 70% ethanol for long term storage at 4° C. Tissue paraffin infiltration is processed in the tissue processor (Leica, Asp200s).
When the program was complete, tissue slices with cut side down were transferred into a mold with paraffin to form a block. The tissue block was placed on a microtome (Leica, RM2125/RT, Germany) and cut into ˜5 μm slices. The tissue slices were float on the surface of 37° C. water bath until flat and then collected onto clean glass slides. […]
Terminal deoxynucleotidyl transferase-mediated dUTP nick end labeling (TUNEL) staining of myocardial slices was performed to detect apoptosis in myocardium using the TUNEL Apoptosis detection kit (Genscript, Cat. No L00297, Piscataway, N.J., USA) according to the manufacturer's instructions. […] For quantitative analysis, TUNEL-positive cells in 10 different sectors with approximately 100-200 cells/sector were counted with high-power magnification, Axioskop 2 plus with software Axioversion (Axiovs 20v.4.8.2.0). Apoptotic cells were expressed as percentage of total cells in the field.

[1] = background statement; cited from earlier work
isolated rat hearts = test: Ischemia-reperfusion model in isolated rat hearts (Langendorff): coronary flow rate and contractile function; set-up: species or system SD rats; conditions: for coronary flow rate versus control: n=10-12
Protocol: Male SD rats (250-300 g) were anesthetized with phenobarbital (30 mg/kg, i.p.), and the heart were isolated and mounted to a Langendorff heart perfusion apparatus via the aorta and perfused with Krebs-Henseleit solution at 37° C. gassed with 95% O2 and 5% CO2. A saline-filled latex balloon connected by a polyethylene catheter to a pressure transducer was inserted into the left ventricle via an incision on the left atrium to measure left ventricular (LV) pressure. The balloon volume was adjusted and kept at a diastolic pressure of 0-5 mm Hg following insertion. ECG was recorded with two electrodes placed at the apex and the aorta. Signals were continuously monitored and stored on an IBM compatible PC computer using a multiple channels data acquisition system (Chengdu Instrument Ltd, Chendu, China).
A silk suture was placed around the left anterior descending artery (LAD) 2 mm distal to the left atrial appendage. A short length of polyethylene tube was placed over the suture on LAD as an occluder and the suture was pulled and the tube to ligate the coronary artery to induce regional ischemia. After a 20-min stabilization period, the hearts were treated by vehicle (DMSO control) or 0.3, 1, or 3 μM of the parent compound acacetin (0.3, 1, or 3 μM) for 10 min, and the LAD was ligated for 30-min. The ligation was released to allow for reperfusion for 2 h. Myocardial ischemia was confirmed by a decrease in left ventricular developed pressure and specific ST-T elevation on the ECG. At completing the reperfusion, the hearts were used to perform histological and/or molecular/biochemical analysis.
Hearts were excluded from the study if one of the following criteria was observed: (1) left ventricular developed pressure (LVP) was below 80 mmHg during baseline stabilization; (2) aortic wall was damaged during cannulation leading to a leakage during perfusion; or (3) hearts suffered from sustained irreversible arrhythmia during stabilization.
To determine the mechanisms of cardioprotection, the ischemia-reperfusion model was established in isolated rat hearts using accurate concentrations of the parent compound acacetin. The hearts perfused with the Langendorff system were exposed to 30 min ischemia (coronary ligation) followed by 120 min reperfusion (FIG. 5). After a 20 min stabilization period, the heart was treated with 0.3, 1, 3 μM acacetin, or equivolume vehicle (DMSO) for 10 min and then 30 min during ischemia.

[2] = Solubility of the purified prodrugs versus parent compound acacetin; type: physicochemical
From the text: Prodrug B: Light yellow solid. Yield 54%. C16H11O7PNa2 (408.21). EI-MS: m/z 387.04 [M+H—Na]^+. ^1H NMR (400 MHz, DMSO-d6): δ=12.90 (s, 1H), 8.04 (d, J=8.8 Hz, 2H), 7.10 (d, J=8.8 Hz, 2H), 7.02 (s, 1H), 6.98 (s, 1H), 6.60 (s, 1H), 3.89 (s, 3H) ppm.

solubility ([2]; aqueous buffer, comparison with Tris solution pH=7.0, read-out: solubility (parent compound, compared with Prodrug A in Tris solution)): < 0.2 µg/mL
solubility ([2]; water, H2O, read-out: solubility (parent compound, compared with Prodrug B in H2O)): < 0.1 µg/mL
Compound: COc1ccc(-c2cc(=O)c3c(O)cc(O)cc3o2)cc1 [acacetin]
TUNEL-positive nuclei (percentage cell number) (myocyte apoptosis): 20.2±4.1%
water solubility [1]: water-insoluble
coronary flow rate versus control (isolated rat hearts; 0.3 μM, before ischemia): 108.9±2.3%
coronary flow rate versus control (isolated rat hearts; 1 μM, before ischemia): 122.1±4.9%
increase of heart contractile function (left ventricular systolic pressure and +dP/dT) (isolated rat hearts; 3 μM, before ischemia, n=10, P<0.01): around 10 % of control
coronary flow rate versus control (isolated rat hearts; 3 μM, before ischemia): 125.8±6.6%
improvement of reduced coronary flow rate, difference vs. vehicle (isolated rat hearts; 3 μM, during ischemia and reperfusion, P<0.01 vs. vehicle): 16-25%
prevention of decrease of heart contractile function induced by ischemia-reperfusion, difference vs. vehicle (isolated rat hearts; 3 μM, P<0.01 vs. vehicle): 15-20%

From patent publication US9260461B2, “Water-soluble derivatives and prodrugs of acacetin and methods of making and using thereof” (Versitech Limited, priority 2014, dated 2016)
